How the values were obtained:
[1] = biological target: T1, P2X2R (Rattus norvegicus, UniProt P49653); test: ATP-induced [Ca2+]i shifts in PC12 cells; format: cell-based
T1 construct: endogenous in cells; host or cells: PC12 cells
T1 sequence (P49653 1-472): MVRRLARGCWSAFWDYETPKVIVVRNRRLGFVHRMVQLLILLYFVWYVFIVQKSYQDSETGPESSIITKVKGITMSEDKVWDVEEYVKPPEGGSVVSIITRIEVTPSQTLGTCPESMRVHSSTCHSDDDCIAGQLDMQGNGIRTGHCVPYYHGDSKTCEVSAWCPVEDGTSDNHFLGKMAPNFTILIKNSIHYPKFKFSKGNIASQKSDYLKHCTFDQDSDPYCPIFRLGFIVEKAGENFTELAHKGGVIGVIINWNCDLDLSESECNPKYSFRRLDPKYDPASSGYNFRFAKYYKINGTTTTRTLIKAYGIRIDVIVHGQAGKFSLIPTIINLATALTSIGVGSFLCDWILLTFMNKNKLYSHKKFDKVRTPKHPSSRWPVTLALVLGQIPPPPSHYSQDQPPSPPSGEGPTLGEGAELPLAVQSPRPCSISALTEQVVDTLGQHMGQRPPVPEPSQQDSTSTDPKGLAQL
Procedure: (§1) Mouse peritoneal macrophages, PC12 cells, J774 cells, and HEPG2 cells were analyzed by fluorescence microscopy to measure the intracellular Ca^2+ concentrations ([Ca^2+]i). Cells were incubated with 2 μM Fura-2-AM (Molecular Probes) for 30 min, and the [Ca^2+]i mobilization was measured in the F340/F380 ratios with a FlexStation 3 multimode microplate reader (Molecular Devices). Cells were plated in translucent 96-well plates (BD Falcon) for 15 min and then washed and incubated in a saline solution with 150 NaCl, 5 KCl, 1 MgCl2, 1 CaCl2, and 10 HEPES (pH 7.4) for 30 min before measurements of [Ca^2+]i. The Ca^2+ influx was induced by stimulating cells with P2 receptor agonists. P2 receptor antagonists were added 10 min before P2 receptor agonist addition. […] Ionomycin was considered a positive control, and the other recordings were normalized in relation to the AUC.

[2] = biological target: T2, P2X4R (Rattus norvegicus, UniProt P51577); test: ATP-induced [Ca2+]i shifts potentiated by ivermectin in NR8383 alveolar macrophage cell line; format: cell-based; details: 10 μM; NR8383 cells
T2 construct: endogenous in cells; host or cells: NR8383 rat alveolar macrophage cell line
T2 sequence (P51577 1-388): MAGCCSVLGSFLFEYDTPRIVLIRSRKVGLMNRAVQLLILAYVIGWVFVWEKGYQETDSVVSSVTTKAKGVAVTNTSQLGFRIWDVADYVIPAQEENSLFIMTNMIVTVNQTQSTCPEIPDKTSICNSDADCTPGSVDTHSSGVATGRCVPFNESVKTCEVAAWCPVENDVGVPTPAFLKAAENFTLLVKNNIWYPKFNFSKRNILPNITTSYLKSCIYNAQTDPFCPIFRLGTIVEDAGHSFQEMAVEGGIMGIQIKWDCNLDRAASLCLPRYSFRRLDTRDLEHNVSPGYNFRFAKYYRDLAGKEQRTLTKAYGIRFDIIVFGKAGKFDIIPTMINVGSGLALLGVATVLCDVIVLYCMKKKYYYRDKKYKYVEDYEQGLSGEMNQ

[3] = biological target: T3, P2Y1R (Mus musculus, UniProt P49650); test: ADP-induced [Ca2+]i shifts in mouse peritoneal macrophages; format: cell-based; details: concentration not given
T3 construct: endogenous in cells; host or cells: mouse peritoneal macrophages
T3 sequence (P49650 whole entry): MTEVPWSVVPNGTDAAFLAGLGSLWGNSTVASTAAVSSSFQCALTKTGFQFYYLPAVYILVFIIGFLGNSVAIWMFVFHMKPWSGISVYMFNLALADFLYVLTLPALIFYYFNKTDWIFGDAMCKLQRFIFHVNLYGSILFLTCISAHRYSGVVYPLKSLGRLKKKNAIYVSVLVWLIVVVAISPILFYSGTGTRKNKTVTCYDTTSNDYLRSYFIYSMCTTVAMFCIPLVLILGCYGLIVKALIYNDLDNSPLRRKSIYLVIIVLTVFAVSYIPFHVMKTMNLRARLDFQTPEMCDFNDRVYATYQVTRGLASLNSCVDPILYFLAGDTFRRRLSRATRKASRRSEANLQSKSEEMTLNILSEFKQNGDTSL
Procedure: as §1

[4] = biological target: T4, P2Y2R (Mus musculus, UniProt P35383); test: 2-S-UTP-activated [Ca2+]i shifts in mouse peritoneal macrophages; format: cell-based; details: concentration not given
T4 construct: endogenous in cells; host or cells: mouse peritoneal macrophages
T4 sequence (P35383 whole entry): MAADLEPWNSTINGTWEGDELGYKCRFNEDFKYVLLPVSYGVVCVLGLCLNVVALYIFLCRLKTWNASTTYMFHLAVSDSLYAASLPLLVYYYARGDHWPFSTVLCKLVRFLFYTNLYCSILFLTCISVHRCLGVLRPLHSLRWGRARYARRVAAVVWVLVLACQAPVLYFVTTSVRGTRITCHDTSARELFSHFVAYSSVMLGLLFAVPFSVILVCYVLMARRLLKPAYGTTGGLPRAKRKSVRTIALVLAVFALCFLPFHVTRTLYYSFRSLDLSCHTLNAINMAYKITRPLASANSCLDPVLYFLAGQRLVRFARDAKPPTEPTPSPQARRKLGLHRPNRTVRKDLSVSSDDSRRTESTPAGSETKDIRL
Procedure: as §1

[5] = biological target: T5, P2Y4R (Mus musculus, UniProt Q9JJS7); test: MRS4062-induced [Ca2+]i shifts in mice peritoneal macrophages; format: cell-based; details: concentration not given
T5 construct: endogenous in cells; host or cells: mouse peritoneal macrophages
T5 sequence (Q9JJS7 whole entry): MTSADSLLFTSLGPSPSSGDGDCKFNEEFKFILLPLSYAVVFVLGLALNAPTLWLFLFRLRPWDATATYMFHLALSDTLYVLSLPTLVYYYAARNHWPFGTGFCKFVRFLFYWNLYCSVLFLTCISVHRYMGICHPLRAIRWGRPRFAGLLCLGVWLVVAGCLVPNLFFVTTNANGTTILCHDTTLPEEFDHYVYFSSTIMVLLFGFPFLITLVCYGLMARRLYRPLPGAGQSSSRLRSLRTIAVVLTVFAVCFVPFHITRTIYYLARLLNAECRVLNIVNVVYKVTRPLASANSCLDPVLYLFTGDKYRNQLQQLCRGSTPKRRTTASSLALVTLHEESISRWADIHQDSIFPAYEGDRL
Procedure: as §1

[6] = biological target: T6, P2Y6R (Mus musculus, UniProt Q9ERK9); test: UDPβS-activated [Ca2+]i shifts in mouse peritoneal macrophages; format: cell-based; details: concentration not given
T6 construct: endogenous in cells; host or cells: mouse peritoneal macrophages
T6 sequence (Q9ERK9 whole entry): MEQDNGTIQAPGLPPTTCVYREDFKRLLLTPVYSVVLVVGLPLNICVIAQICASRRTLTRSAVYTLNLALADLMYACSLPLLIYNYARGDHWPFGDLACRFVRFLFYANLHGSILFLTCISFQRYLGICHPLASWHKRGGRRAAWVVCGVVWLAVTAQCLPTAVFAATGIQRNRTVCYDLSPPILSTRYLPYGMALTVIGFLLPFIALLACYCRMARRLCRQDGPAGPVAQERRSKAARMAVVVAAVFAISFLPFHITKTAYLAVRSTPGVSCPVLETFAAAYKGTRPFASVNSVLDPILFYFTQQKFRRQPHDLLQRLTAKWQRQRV
Procedure: as §1

[7] = test system: P2Y11R; test: NAADP-induced [Ca2+]i shifts in mouse peritoneal macrophages; format: cell-based; details: concentration not given
Procedure: as §1

[8] = biological target: T7, P2Y13R (Homo sapiens, UniProt Q9BPV8); test: ADPβS-induced [Ca2+]i shifts in HEP2G cells; format: cell-based; details: concentration not given
T7 construct: endogenous in cells; host or cells: HEP2G (HEPG2) cells
T7 sequence (Q9BPV8 1-354): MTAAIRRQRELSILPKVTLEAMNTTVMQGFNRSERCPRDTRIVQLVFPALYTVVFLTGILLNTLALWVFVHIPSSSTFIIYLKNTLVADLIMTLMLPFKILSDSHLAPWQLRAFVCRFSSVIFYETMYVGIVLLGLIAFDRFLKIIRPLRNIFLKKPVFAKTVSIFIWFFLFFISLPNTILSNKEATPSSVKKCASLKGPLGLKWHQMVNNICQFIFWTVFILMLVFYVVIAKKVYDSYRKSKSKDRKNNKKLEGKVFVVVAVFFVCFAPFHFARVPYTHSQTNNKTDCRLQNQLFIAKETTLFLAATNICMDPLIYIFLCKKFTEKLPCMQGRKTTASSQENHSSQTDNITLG
Procedure: as §1

[9] = test system: Caco-2 cells; test: Caco-2 cell permeability; format: in vitro ADME; details: compared to the controls and 9f and 11c
Procedure: Corning® Costar® Transwell plates (Sigma-Aldrich, St. Louis, MO, USA) were used for seeding Caco-2 cells at 3 × 10^5 cells/well bathed with DMEM supplemented with 10% FSB according to Faria and collaborator in 2018 (Faria et al., [2018]). This culture was maintained for up to 21 days in a humidified incubator at 37°C and 5% CO2. Thiadiazole analog, vinblastine (poor permeability control), and propranolol (high permeability control) stock solutions, all at a concentration of 100 mM, were prepared in Hanks' balanced salt solution (HBSS) containing 25 mM HEPES at pH 7.4 with 0.5% (v/v) DMSO. Transport buffer (0.3 ml) was added to each well to equilibrate the cells with the transport buffer. A 24-well enhanced recovery plate containing 1 ml of transport buffer (pH 7.4) was substituted for the feeder tray. The transport buffer in the apical wells was removed, and 0.3 ml of a solution containing thiadiazoles 9b, 9c, 9f, or 11c; vinblastine; or propranolol was added. Then, the cells were replaced for incubation for 60 min. Lucifer yellow concentrations in the donor and acceptor wells were measured in the last of this incubation. Lucifer yellow was measured using an M5 plate reader ([…]) at an excitation wavelength of 485 nm and an emission wavelength of 530 nm.

Compound	Effect on ATP-induced [Ca2+]i shifts ([1]; 10 μM)	Effect on ATP-induced [Ca2+]i shifts potentiated by 1 μM ivermectin [2]	Effect on ADP-induced [Ca2+]i shifts [3]	Effect on 2-S-UTP-activated [Ca2+]i shifts [4]	Effect on MRS4062-induced [Ca2+]i shifts [5]	Effect on UDPβS-activated [Ca2+]i shifts [6]	Effect on NAADP-induced [Ca2+]i shifts [7]	Effect on ADPβS-induced [Ca2+]i shifts [8]	Effect on ATP-induced [Ca2+]i shifts ([1]; 100 μM)	Permeability in Caco-2 cells (in words) [9]
COc1ccc(CC(=O)NC(NC(=NC#N)Nc2cccc3ncccc23)C(C)(C)C)cc1OC (stereo not drawn) [Compound A740003, N-(1-{[(cyanoimino)(5-quinolinylamino)methyl]amino}-2,2-dimethylpropyl)-2-(3,4-dimethoxyphenyl)acetamide]	did not inhibit	did not inhibit	did not inhibit	did not have inhibitory effects	did not inhibit	did not show inhibitory activity	did not inhibit	did not inhibit	–	–
CCOC(=O)c1cnn(-c2nnc(-c3ccccc3Cl)s2)c1N [Compound 9f]	–	did not inhibit	did not inhibit	did not have inhibitory effects	did not inhibit	did not show inhibitory activity	did not inhibit	did not inhibit	did not inhibit	–
N#Cc1cnn(-c2nnc(-c3ccccc3Cl)s2)c1N [Compound 9b]	–	–	–	–	–	–	–	–	–	moderate permeability
N#Cc1cnn(-c2nnc(-c3ccc(F)cc3)s2)c1N [Compound 9c]	–	–	–	–	–	–	–	–	–	moderate permeability
